Results on one molecule are retold here after US20160017312A1, “METHOD FOR MODULATING A BACTERIAL INVASION SWITCH” (priority 2012, published 2016).

The test system of the experiment is S. meliloti cells. The experiment is described as follows: Whole cell motility (swimming colonies) with added calcium. It counts as cell-based, Sinorhizobium meliloti. As to conditions: 1 mM Ca; protease active, non-swimming S. meliloti cells. Here is the method:
Example 2. In no calcium or low calcium condition, most of ExoRm is in the monomeric form sensitive to protease digestion. Adding 1 mM or more Ca will turn ExoRm into dimeric form, preventing protease from binding and digesting ExoRm. So Ca is an indirect inhibitor of the protease. […] This is a typical indirect inhibitor. In the same fashion, most ions are indirect inhibitors of ExoRm protease.
Example 1. Whole cell motility assay: The whole cell motility assay is based on the fact that inhibition of the protease lead to ExoRm increase and the cell becoming motile. The initial condition may be set with either low pH or low ion concentration, so that S. meliloti cells will form non-swimming colonies. The putative direct or indirect inhibitors can be mixed with S. meliloti cells in soft agar plates. The ones that can make S. meliloti cells to form swimming colonies are the potential direct or indirect inhibitors.
Bacterial cell motility was examined using swarming plates containing 0.3% agar as described previously with some modifications. Briefly, fresh cell cultures were prepared and diluted to OD600 of 0.1. Then 2 μL of each diluted culture was inoculated into LB/MC soft agar plate and incubated for 2-3 days to determine colony size.

Each structure is given as a SMILES string.

On to `[Ca+2]` [Ca], for which the “effect on swimming of S. meliloti cells” value is “turn protease active, non-swimming S. meliloti cells into swimming cells”.
